Results on four compounds are retold here after patent US5079235A, “Antiviral compounds” (Burroughs Wellcome Co., priority 1986, dated 1992).

In series [1] the test system is herpes simplex. Particulars: in vitro; cited from earlier work.
Series [2] deals with vaccinia. Particulars: in vitro; cited from earlier work.
Series [3] deals with Varicella zoster virus (VZV). Description: Varicella zoster virus (VZV) assayed in MRC5 cells, plaque reduction method without agarose overlay. Particulars: for IC50: Human alphaherpesvirus 3, MRC5 cells. It is filed as cell-based. Background: Plaques are areas of infected cells; plaque reduction assays count them against a control.
A short description of series [4]: Cell toxicity in Vero cell growth inhibition assay (MTT). The class given is cell-based. The settings on record: monkey; Vero cells, 50% inhibition of cell viability (MTT) at 96 hours; read-out: CCID50 at 96 hr. The method, then:
Cell toxicity is assessed in a cell growth inhibition assay. Subconfluent cultures of Vero cells grown on 96-well microtiter dishes are exposed to different dilutions of drug, and cell viability determined daily on replicate cultures using uptake of a tetrazolium dye (MTT). The concentration required for a 50% inhibition of cell viability at 96 hours is termed CCID50.

In series [5] the test system is Human cytomegalovirus (HCMV). Description: Human cytomegalovirus (HCMV) plaque reduction assay in MRC5 or Detroit 532 cells. The class given is cell-based. The settings on record: for IC50: Human betaherpesvirus 5, HCMV, MRC5 or Detroit 532 cells, plaque reduction. The method, then: Human cytomegalovirus (HCMV) is assayed in monolayers of either MRC5 cells (human embryonic lung) or Detroit 532 cells (human foreskin fibroblasts) in multiwell trays. Activity of compounds is determined in the plaque reduction assay, in which a cell monolayer is infected with a suspension of HCMV, and then overlaid with nutrient agarose in the form of a gel to ensure that there is no spread of virus throughout the culture. A range of concentrations of compound of known molarity was incorporated in the nutrient agarose overlay. Plaque numbers of each concentration are expressed as percentage of the control and a dose-response curve is drawn. From this curve the 50% inhibitory concentration (IC50) is estimated.

A value given as a limit tells only on which side of the number the result lay.

On to `C#Cc1cn([C@H]2C[C@H](O)[C@@H](CO)O2)c(=O)[nH]c1=O` [2'-deoxy-5-ethynyluridine], for which the “antiviral activity against herpes simplex (in words)” value in series [1] was “did not demonstrate any effect of use in human medicinal chemotherapy”. Also, in series [2], the “antiviral activity against vaccinia (in words)” value is “did not demonstrate any effect of use in human medicinal chemotherapy”.
For orientation: IC50 means the concentration that gives 50% inhibition. As for `CC#Cc1cn([C@H]2C[C@H](O)[C@@H](CO)O2)c(=O)n(C(=O)c2ccccc2)c1=O` [Example 4, 3-N-Benzoyl-2'-deoxy-5-propynyluridine], the “anti-VZV activity (in words)” value in series [3] is on record as “potent anti-VZV activity”. In addition, the IC50 in series [3] is 2.2 µM; in series [5], 28.5 µM. In addition, the CC50 at 96 h in series [4] was above 500 µM.
For `CC#Cc1cn([C@H]2C[C@H](O)[C@@H](CO)O2)c(=O)nc1N` [Example 2, 2'-Deoxy-5-propynylcytidine] the same measures were “potent anti-VZV activity”, 3.3 µM, above 20 µM and above 300 µM.
`C#Cc1cn([C@H]2C[C@H](O)[C@@H](CO)O2)c(=O)n(C(=O)c2ccccc2)c1=O` [Example 1, 3-N-Benzoyl-2'-deoxy-5-ethynyluridine]: the “activity against CMV (in words)” value in series [5] (CMV) is on record as “high activity against CMV”.
